Laboratory results published in the supplement of paper PMC8671470.

How the values were obtained:
Conditions in all cases: 72 h
BV-173 [1] = system: BV-173
In short: (§1)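 For the IC50, dose–response curves were fitted with a log-logistic model. The data came from fifteen myeloid leukaemia cell lines grown in RPMI 1640 at densities in the linear growth range and incubated in 384-well plates for 72 h at 37 °C under 5% CO2. Doses were five tenfold steps from 1 to 10,000 nM in duplicate, and luminescent ATP viability was normalised to vehicle and to a positive control at 10 µM before four-parameter fitting.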

HEL [2] = system: HEL
In short: as §1

HL-60 [3] = system: HL-60
In short: as §1

K-562 [4] = system: K-562
In short: as §1

KCL-22 [5] = system: KCL-22
In short: as §1

KG-1 [6] = system: KG-1
In short: as §1

KU-812 [7] = system: KU-812
In short: as §1

LAMA-84 [8] = system: LAMA-84
In short: as §1

ML-2 [9] = system: ML-2
In short: as §1

MOLM-13 [10] = system: MOLM-13
In short: as §1

MV4-11 [11] = system: MV4-11
In short: as §1

Mono-Mac-6 [12] = system: Mono-Mac-6
In short: as §1

NOMO-1 [13] = system: NOMO-1
In short: as §1

SHI-1 [14] = system: SHI-1
In short: as §1

THP-1 [15] = system: THP-1
In short: as §1

BV-173 [16] = test: cell viability (% survival relative to DMSO control, bortezomib = 0%); higher = less cytotoxic
In short: (§2)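 In 384-well plates pre-printed with compounds at 1, 10, 100, 1000 or 10000 nM, duplicate wells received cells from 10 AML and 5 CML lines at densities within the linear growth range. The plates stayed at 37 °C with 5% CO2 for 72 h before CellTiter-Glo luminescence was recorded. Each entry is averaged percent survival. Scaling placed vehicle at 100% and a 10 µM positive control at 0%.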

HEL [17] = test: as above
In short: as §2

HL-60 [18] = test: as above
In short: as §2

K-562 [19] = test: as above
In short: as §2

KCL-22 [20] = test: as above
In short: as §2

KG-1 [21] = test: as above
In short: as §2

KU-812 [22] = test: as above
In short: as §2

LAMA-84 [23] = test: as above
In short: as §2

ML-2 [24] = test: as above
In short: as §2

MOLM-13 [25] = test: as above
In short: as §2

MV4-11 [26] = test: as above
In short: as §2

Mono-Mac-6 [27] = test: as above
In short: as §2

NOMO-1 [28] = test: as above
In short: as §2

SHI-1 [29] = test: as above
In short: as §2

THP-1 [30] = test: as above
In short: as §2

COc1ccc2c(NC(=O)Nc3cccc(C(F)(F)F)n3)ccnc2c1
Conditions	IC50 (cell viability) [nM]
BV-173 [1]	> 10000
HEL [2]	> 10000
HL-60 [3]	> 10000
K-562 [4]	> 10000
KCL-22 [5]	> 10000
KG-1 [6]	> 10000
KU-812 [7]	> 10000
LAMA-84 [8]	> 10000
ML-2 [9]	> 10000
MOLM-13 [10]	9040
MV4-11 [11]	> 10000
Mono-Mac-6 [12]	> 10000
NOMO-1 [13]	> 10000
SHI-1 [14]	> 10000
THP-1 [15]	> 10000

cell viability [%]
Conditions	1 nM	10 nM	100 nM	1000 nM	10000 nM
BV-173 [16]	104	93.6	111	102	87.4
HEL [17]	116	99.2	105	106	108
HL-60 [18]	86.5	129	116	116	98.3
K-562 [19]	104	100	95.3	93.7	103
KCL-22 [20]	101	102	110	94.9	114
KG-1 [21]	90.7	85	92	93.9	120
KU-812 [22]	116	102	108	109	112
LAMA-84 [23]	102	100	105	100	100
ML-2 [24]	101	97.6	109	122	127
MOLM-13 [25]	105	115	113	108	44.5
MV4-11 [26]	102	103	101	85.7	77.2
Mono-Mac-6 [27]	108	92.3	95.7	94.9	97.1
NOMO-1 [28]	97.4	98.2	113	94.5	113
SHI-1 [29]	93.6	109	104	110	85.4
THP-1 [30]	95.5	101	105	95.2	107

O=c1cc(N2CCOCC2)oc2c(-c3ccccc3)cccc12
Conditions	IC50 (cell viability) [nM]
BV-173 [1]	23.7
HEL [2]	48.7
HL-60 [3]	334
K-562 [4]	291
KCL-22 [5]	9050
KG-1 [6]	4970
KU-812 [7]	> 10000
LAMA-84 [8]	> 10000
ML-2 [9]	32.8
MOLM-13 [10]	185
MV4-11 [11]	39.2
Mono-Mac-6 [12]	3750
NOMO-1 [13]	25.2
SHI-1 [14]	3600
THP-1 [15]	> 10000

cell viability [%]
Conditions	1 nM	10 nM	100 nM	1000 nM	10000 nM
BV-173 [16]	176	95.7	1.14	95.6	48
HEL [17]	133	92.1	23.1	98.9	78.1
HL-60 [18]	130	118	103	0.801	0.404
K-562 [19]	135	104	90.3	6.74	0.516
KCL-22 [20]	123	104	90.5	98.9	45.1
KG-1 [21]	114	106	82.8	90.8	28.4
KU-812 [22]	115	100	56.3	95.1	54.8
LAMA-84 [23]	127	108	46.1	84.2	65.3
ML-2 [24]	143	103	17.6	89.4	54.9
MOLM-13 [25]	125	119	77.5	1.16	0.26
MV4-11 [26]	131	120	0.364	-0.297	-0.0959
Mono-Mac-6 [27]	116	103	95.3	83.2	40.7
NOMO-1 [28]	122	96	9.05	90.4	57.1
SHI-1 [29]	123	102	106	92.8	30.7
THP-1 [30]	116	94.1	99.8	95.8	59.3

O=C1C(SCCO)=C(SCCO)C(=O)c2ccccc21
Conditions	IC50 (cell viability) [nM]
BV-173 [1]	309
HEL [2]	1510
HL-60 [3]	3230
K-562 [4]	549
KCL-22 [5]	664
KG-1 [6]	507
KU-812 [7]	530
LAMA-84 [8]	747
ML-2 [9]	307
MOLM-13 [10]	381
MV4-11 [11]	219
Mono-Mac-6 [12]	664
NOMO-1 [13]	370
SHI-1 [14]	450
THP-1 [15]	424

cell viability [%]
Conditions	1 nM	10 nM	100 nM	1000 nM	10000 nM
BV-173 [16]	107	106	98.5	0.154	-0.205
HEL [17]	110	107	103	69.8	-0.489
HL-60 [18]	123	115	122	101	-0.447
K-562 [19]	98.9	98.8	112	20.6	0.0893
KCL-22 [20]	112	101	89.9	38.3	-0.332
KG-1 [21]	107	90.2	94.9	20.2	-0.961
KU-812 [22]	104	89.1	99.2	20.9	-0.694
LAMA-84 [23]	105	95.6	101	36.1	1.35
ML-2 [24]	101	96.2	95.8	2.66	-0.682
MOLM-13 [25]	104	101	107	5.3	-0.664
MV4-11 [26]	96	113	83.9	0.103	-0.335
Mono-Mac-6 [27]	111	102	104	30	-0.648
NOMO-1 [28]	105	99.7	100	7.84	-0.348
SHI-1 [29]	99.5	103	95.4	16.8	-0.637
THP-1 [30]	100	98.2	106	10.8	-1.37
